This passage reports EC50, IC50 and outcome results from PubChem BioAssay AID179 (DTP/NCI, 2004).

pEC50, pIC50: −log10 of the molar value. The source made the active and inactive calls.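 The calls were made as follows: active = compounds giving half or more protection of infected cells from virus-caused growth loss, again on retest; inactive = the rest.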

The test system of this test is CEM cells HIV-1 protection, formazan growth assay. Kind of test: NCI AIDS Antiviral Assay. The settings on record: for pIC50: measured here: growth of uninfected CEM cells. The procedure, abridged:
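Protection of CEM cells against HIV-1 was scored from cell growth (soluble formazan) across five concentrations, with parallel uninfected cells. Lack of protection may reflect toxicity.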

On to `CN(C)/N=C1/CCC(C(F)(F)F)(C(F)(F)F)O1`, for which the pEC50 was less than 3.70 and the pIC50 was 5.17.
On to `COC(=O)[C@@]12CC[C@]1(C(=O)OC)C1C(C)=CC(=O)O[C@@]12C` (stereo partly specified), for which the pEC50 is less than 3.70 and the pIC50 was less than 3.70.
Consider `COC(=O)C1CCc2nnc(-c3ccccc3)n21` (stereo unspecified), for which the pEC50 is 3.02 and the pIC50 is 2.99.
For the compound `CN(C)CCNc1ccc(CO)c2oc3ccc(O)cc3c(=O)c12`, the pEC50 is less than 3.40 and the pIC50 was 5.94.
For `C(=C/c1nc2ccccc2o1)/c1ccc2c(c1)OCO2` the same measures were less than 4.99 and less than 4.99.
For `CCCCCCCCCCCCCCCCCCOP(=O)([O-])OC1CC[N+](C)(C)CC1` the same measures were less than 3.69 and 5.72.
For `O=C1NC(=O)C(CCC(=O)c2cccc3ccccc23)C(=O)N1` the same measures were less than 4.22 and less than 4.22.
Take `N.N.N.N.O=C([O-])O.O=C([O-])[O-].[Co+3]`: the outcome was inactive.
Take `N#C/C(=C\c1cc(Cl)ccc1O)C1CCC([N+](=O)[O-])CC1` (stereo unspecified): the pEC50 is less than 3.70 and the pIC50 is 4.52.
As for `CC1(C)OC[C@@H]([C@H](O)C2C=CC(=O)S2)O1` (stereo partly specified), the outcome was inactive.
For the compound `CC1(C)CC(=O)CC(C)(C)ON1`, the result was inactive.
Consider `C/C(=N/N(C=O)C[n+]1ccccc1)C(CN(CC(C)C)CC(C)C)C(=O)Nc1ccc(C)cc1C` (stereo unspecified), for which the pEC50 was less than 4.16 and the pIC50 is less than 4.16.
Take `CCCCCN(CCCCC)CCC(=O)c1ccc2cc(Br)c3ccccc3c2c1`: the pEC50 is less than 3.70 and the negative logarithm of the IC50 (pIC50) is 4.90.
In the same order, the values of `CCC(C)(C)/C(CC(O)(C(F)(F)F)C(F)(F)F)=N\O` are less than 3.70 and less than 3.70.
Turning to `O=C(O)CCSC(=O)Nc1cccc(F)c1`, the result was inactive.
Turning to `O=S1(=O)OCCOS(=O)(=O)C1(I)I`, the pEC50 is less than 3.26 and the pIC50 was 3.91.
For the compound `O=c1[nH]c2ccc(Cl)cc2o1`, the pEC50 was 3.74 and the pIC50 was less than 3.70.
`N#Cc1ccc(-c2ccc(Cl)cc2)n(C2OC(CO)C(O)C(O)C2O)c1=S` (stereo unspecified): the pEC50 was less than 3.70 and the pIC50 was less than 3.70.
For the compound `COc1cc(C(=O)/C=C/c2ccc(OCC#N)cc2)cc(OC)c1OC`, the pEC50 is less than 3.70 and the pIC50 is 4.53.
As for `C[C@@H]1C[C@H](C)S(=O)[C@H](C)S1` (stereo partly specified), the pEC50 was less than 2.85 and the pIC50 is less than 2.85.
In the case of `[Se]=P(c1ccccc1)(c1ccccc1)c1ccc(C(c2ccccc2)=P(c2ccccc2)(c2ccccc2)c2ccccc2)cc1`, the pEC50 is less than 5.00 and the pIC50 was 6.00.
For `CN/N=C(\C)C(CN1CCCCC1)C(C1=C(O)c2ccccc2OC1)c1ccccc1` (stereo unspecified), the pEC50 was less than 4.53 and the pIC50 was less than 4.53.
As to `N=C1C=CC(=C(c2ccc(N)cc2)c2ccc(N)cc2)C=C1`, the result was inactive.
Turning to `O=C(NC(=S)Nc1ccc(Cl)c(Cl)c1)c1cccc([N+](=O)[O-])c1`, the pEC50 is less than 3.70 and the pIC50 is 4.77.
Consider `N#C/C(=C/c1ccc2c(c1)OCO2)C(=O)c1ccccc1`, for which the pEC50 was less than 4.44 and the pIC50 is less than 4.44.
Regarding `CC(C)(C)[Si](OC1CC(n2cnc3c(N)ncnc32)OC1CO)(c1ccccc1)c1ccccc1` (stereo unspecified), the pEC50 was less than 4.00 and the pIC50 is less than 4.00.
On to `Cc1cc(N(CCC#N)S(C)(=O)=O)ccc1C=O`, for which the pEC50 was less than 3.03 and the pIC50 is less than 3.03.
Consider `CCOC(=O)C(NC(=O)c1ccccc1)(Nc1cc(C)on1)C(F)(F)F` (stereo unspecified), for which the pEC50 was less than 3.70 and the pIC50 was less than 3.70.
On to `O=c1[nH]c(=O)n([C@H]2CCCO2)cc1F`, for which the pEC50 is less than 3.20 and the negative-log IC50 (pIC50) is 3.99.
For the compound `C[C@H](c1ccccc1)N1C(=O)[C@@H](OCc2ccccc2)[C@H]1[C@H](COC(=O)COCc1ccccc1)OCc1ccccc1`, the pEC50 is less than 3.70 and the pIC50 is less than 3.70.
In the case of `C/C=C/C#CC#CC(O)C(/C=C/CCCO)OC1OC(COC2OC(CO)C(O)C(O)C2O)C(O)C(O)C1O` (stereo unspecified), the pEC50 was less than 3.35 and the pIC50 was less than 3.35.
With `COc1ccc(C2OC(c3ccncc3)=NN2C)cc1OC` (stereo unspecified), the pEC50 was less than 3.70 and the pIC50 was 4.06.
For `COc1cc2c3c(c1)nc(C)n3C(=O)CS2` the same measures were less than 3.70 and less than 3.70.
For `N=c1oc2cc(O)ccc2cc1C(=O)NCc1ccccc1` the same measures were less than 3.70 and 4.70.
For `N#CSCc1cccc(Nc2cc(=O)[nH]c(=O)[nH]2)c1` the same measures were less than 3.70 and 4.59.
Take `Cn1cc(NC(=O)[C@@H]2CCC(N)=N2)cc1C(=O)NCCC(=N)N`: the outcome was inactive.
Consider `Cc1cc(C)c2c(c1)C(=O)C1(C2)Cc2c(ccc(C)c2C)C1=O` (stereo unspecified), for which the pEC50 is less than 4.00 and the pIC50 is less than 4.00.
Take `COc1cccc(CCn2c(N)c(C(=O)O)c3ccc([N+](=O)[O-])cc3c2=O)c1`: the pEC50 is less than 3.70 and the pIC50 is 4.62.
In the same order, the values of `O=C1CN(c2ccccc2)C(=O)CN1CCN1CC(=O)N(c2ccccc2)CC1=O` are less than 3.70 and less than 3.70.
With `Oc1ccc(C2SCc3nc4ccccc4n32)cc1` (stereo unspecified), the pEC50 was less than 4.57 and the pIC50 is less than 4.57.
As for `COc1ccc(NC2=CC(C)(C(=O)O)OC2=O)cc1` (stereo unspecified), the pEC50 is less than 3.70 and the pIC50 was less than 3.70.
Regarding `CC(C)(C)NC(NC(C)(C)C)=C(/C=C(/Cl)[N+](=O)[O-])[N+](=O)[O-]`, the pEC50 was less than 3.70 and the pIC50 is 3.79.
In the same order, the values of `O=c1[nH]c(=O)n(C2CC(F)C(CO)O2)cc1COCC(F)(F)F` (stereo unspecified) are 6.77 and 3.69.
As for `O=[N+]([O-])c1ccc(/C=c2\sc3scc(-c4ccc([N+](=O)[O-])cc4)[n+]3\c2=C/c2ccc([N+](=O)[O-])cc2)cc1`, the pEC50 was less than 3.70 and the pIC50 was 4.01.
In the case of `COC(=O)C1NC(C)(C(=O)OC)C2C(=O)NC(=O)C12` (stereo unspecified), the pEC50 was less than 3.03 and the pIC50 was less than 3.03.
Take `Oc1cc(Cl)cc2cc(Cl)cnc12`: the result was inactive.
For the compound `COc1ccc(CN2CCCN(Cc3ccc(OC)cc3OC)C2c2cc(Cl)cc(Cl)c2O)c(OC)c1`, the pEC50 is less than 3.70 and the pIC50 is 4.46.
In the case of `O=C(CO[N+](=O)[O-])OC/C=C/c1ccccc1`, the outcome was inactive.
In the case of `O=C(Cc1ccccc1)NN1C(=O)/C(=C\c2ccc([N+](=O)[O-])cc2)SC1=Nc1ccccc1`, the pEC50 was less than 4.25 and the pIC50 is less than 4.25.
As to `Cc1ccc(CC[P+](=O)CCc2ccc(C)nc2)cn1`, the pEC50 is less than 3.70 and the pIC50 is less than 3.70.
For `Cc1ccc(Cl)c(NC(=O)C(=O)C(C(=O)c2ccncc2)C2OC(=O)c3ccccc32)c1` (stereo unspecified), the pEC50 was less than 3.25 and the negative logarithm of the IC50 (pIC50) was 3.78.
Consider `CCOC(=O)NC(Nc1ccc(OC(F)(F)F)cc1)(C(F)(F)F)C(F)(F)F`, for which the pEC50 is less than 3.70 and the pIC50 was 3.98.
As to `COc1cc2c(cc1OCCCCCN1C(=O)c3cccc4cccc(c34)C1=O)N=C[C@@H]1CCCN1C2=O`, the pEC50 was less than 5.70 and the pIC50 is 5.96.
Take `O=C1SCC(O)=C1/C=N/Nc1nc2ccccc2o1`: the pEC50 was less than 4.30 and the pIC50 was 5.58.
For `O=C(NCCCCNCCCNC(=O)OCc1ccccc1)OCc1ccccc1` the same measures were less than 3.70 and 4.48.
For `Cc1ccc(S(=O)(=O)Nn2c(-c3ccccc3)c(C#N)c(-c3ccc(Cl)cc3)c(C#N)c2=O)cc1` the same measures were less than 3.70 and 4.41.
For `O=c1nc2n(c3ncccc13)CC=NN2` the same measures were less than 3.70 and less than 3.70.
For the compound `Nc1c(C(=O)OCc2ccccc2)[nH]c(=O)[nH]c1=O`, the pEC50 is less than 3.70 and the pIC50 is less than 3.70.
In the case of `OCC(O)C1[O][Sb][O]C1C(O)CO` (stereo unspecified), the pEC50 is less than 3.70 and the pIC50 was less than 3.70.
Regarding `COc1cc([C@H]2CC(=O)C[C@H](c3cc(OC)c(OC)c(OC)c3)C23C(=O)c2ccccc2C3=O)cc(OC)c1OC`, the pEC50 is less than 3.70 and the pIC50 was less than 3.70.
Regarding `CC1CCN(C2=CC(=O)C(=O)c3cccnc32)CC1`, the outcome was inactive.
For the compound `O=C(NCCCCN(CCCNC(=O)C(F)(F)F)Cc1ccccc1)C(F)(F)F`, the pEC50 is less than 3.70 and the pIC50 was 4.01.
For `Cc1c(C)n2c(=O)n(-c3ccccc3)c(=O)n2c1=O` the same measures were less than 3.01 and 3.21.
As to `CC1(C)CNC(=O)C2(C=NC(C)(C)CNC(=O)C3(C=N1)CCCO3)CCCO2` (stereo unspecified), the pEC50 is less than 4.60 and the pIC50 is less than 4.60.
In the case of `CC1(C)C2CC1C(/C=N\OCC(=O)O)=CC2=O` (stereo unspecified), the pEC50 was less than 3.70 and the pIC50 is less than 3.70.
For the compound `COC(=O)c1noc2c1CSC1=C2CS(=O)(=O)c2ccccc21`, the pEC50 is less than 3.70 and the pIC50 was less than 3.70.
`O=C1NN=C2CCCCCC12` (stereo unspecified): the pEC50 is less than 3.23 and the pIC50 is less than 3.23.
In the case of `S=CN1CCN(C=S)CC1`, the result was inactive.
In the case of `O=C1c2cc([N+](=O)[O-])ccc2-c2ccc3c4ccc5c6c(ccc(c7ccc1c2c73)c64)C(=O)c1cc([N+](=O)[O-])ccc1-5`, the pEC50 was less than 4.00 and the pIC50 is less than 4.00.
With `CCOC(=O)CSc1c(C(=O)OCC)c(=O)n(-c2ccccc2)c(=S)n1-c1ccccc1`, the pEC50 was less than 3.70 and the pIC50 is 4.50.
In the same order, the values of `O=S(=O)(O)c1cc(N=Nc2cc(S(=O)(=O)O)c3cccnc3c2O)ccc1C(O)C(O)c1ccc(N=Nc2cc(S(=O)(=O)O)c3cccnc3c2O)cc1S(=O)(=O)O` (stereo unspecified) are 4.95 and less than 3.70.
For `O=C1C=CC(=O)N1n1c(-c2ccccc2)n[nH]c1=O` the same measures were 4.02 and 3.02.
In the same order, the values of `Cc1ccc(C)c(COCCOCn2cc(N3CCOCC3)c(=O)[nH]c2=O)c1` are less than 3.70 and less than 3.70.

A word on the pEC50: it is the negative decadic logarithm of the EC50, by convention in mol/L. For orientation: pIC50 means −log10 of the IC50, conventionally taken in molar units.
